Measurements published in patent US7795261B2, “Substituted 1-piperidin-4-yl-4-pyrrolidin-3-yl-piperazine derivatives and their use as neurokinin antagonists” (Janssen Pharmaceutica NV, priority 2002, dated 2010).

How the values were obtained:
Assay type in all cases: cell-based
NK2 = molecular target: T1, NK2 (Homo sapiens, UniProt P21452); assay: Signal transduction (ST), intracellular Ca++ (FLIPR), NK2; settings: read-out: pIC50 NK2 (converted)
T1 sequence (P21452 1-398): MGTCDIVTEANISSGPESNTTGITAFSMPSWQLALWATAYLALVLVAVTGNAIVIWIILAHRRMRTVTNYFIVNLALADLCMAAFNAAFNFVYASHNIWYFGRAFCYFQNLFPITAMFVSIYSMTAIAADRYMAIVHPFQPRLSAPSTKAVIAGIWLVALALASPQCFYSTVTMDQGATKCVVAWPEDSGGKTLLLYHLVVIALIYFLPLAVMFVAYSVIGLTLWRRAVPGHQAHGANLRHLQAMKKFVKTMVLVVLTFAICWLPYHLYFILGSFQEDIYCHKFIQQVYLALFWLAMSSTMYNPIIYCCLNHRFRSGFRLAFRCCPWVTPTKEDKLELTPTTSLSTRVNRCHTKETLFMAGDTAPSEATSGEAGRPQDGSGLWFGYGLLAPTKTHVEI

NK1 = NK1 (Homo sapiens, UniProt P25103); assay: Signal transduction (ST), intracellular Ca++ (FLIPR), NK1 antagonistic activity; settings: read-out: pIC50 NK1 (converted)
Sequence of NK1 (P25103 whole entry): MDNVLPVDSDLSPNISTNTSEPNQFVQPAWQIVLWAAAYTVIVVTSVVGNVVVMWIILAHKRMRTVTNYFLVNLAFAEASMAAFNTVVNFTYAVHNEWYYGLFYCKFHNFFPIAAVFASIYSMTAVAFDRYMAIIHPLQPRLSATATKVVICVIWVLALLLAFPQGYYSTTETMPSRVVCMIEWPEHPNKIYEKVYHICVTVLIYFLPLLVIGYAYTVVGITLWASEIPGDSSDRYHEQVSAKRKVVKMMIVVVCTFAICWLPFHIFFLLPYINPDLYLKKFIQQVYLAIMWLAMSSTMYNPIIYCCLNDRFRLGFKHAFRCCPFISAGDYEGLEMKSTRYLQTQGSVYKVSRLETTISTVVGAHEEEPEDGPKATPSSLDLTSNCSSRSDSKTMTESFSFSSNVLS
Method in brief: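 Antagonist IC50 was fitted by non-linear regression of peak intracellular Ca++ signals measured on FLIPR after agonist challenge. Beforehand, Fluo3-loaded confluent cells received antagonists over a concentration range for 20 min at room temperature in Ca++ Krebs buffer, pH 7.4.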

NK3 = molecular target: T2, NK3 (Homo sapiens, UniProt P29371); assay: Signal transduction (ST), intracellular Ca++ (FLIPR), NK3; settings: read-out: pIC50 NK3 (converted)
T2 sequence (P29371 1-465): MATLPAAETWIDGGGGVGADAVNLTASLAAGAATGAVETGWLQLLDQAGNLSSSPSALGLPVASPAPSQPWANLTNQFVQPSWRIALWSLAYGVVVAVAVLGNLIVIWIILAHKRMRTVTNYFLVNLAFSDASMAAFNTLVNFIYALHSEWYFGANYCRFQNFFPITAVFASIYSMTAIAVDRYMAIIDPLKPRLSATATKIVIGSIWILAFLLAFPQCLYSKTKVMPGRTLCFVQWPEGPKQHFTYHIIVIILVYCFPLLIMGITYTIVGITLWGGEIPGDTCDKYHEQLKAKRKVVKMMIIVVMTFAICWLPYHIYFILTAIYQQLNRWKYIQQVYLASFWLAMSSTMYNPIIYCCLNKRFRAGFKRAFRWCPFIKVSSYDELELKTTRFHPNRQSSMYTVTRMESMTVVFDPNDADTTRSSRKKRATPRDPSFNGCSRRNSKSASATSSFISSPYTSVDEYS

| Structure (SMILES) | IC50 (NK2) | IC50 (NK1) | IC50 (NK3) |
| --- | --- | --- | --- |
| O=C(C1CCCCN1C(=O)C1CC1)N1CCC(N2CCN([C@H]3CCN(C(=O)c4cc(C(F)(F)F)cc(C(F)(F)F)c4)[C@H](Cc4ccccc4)C3)CC2)C1 (stereo partly drawn) [Compound 296] | 1580 nM | 6.31 nM | 794 nM |
| O=C(C1CCCCN1C(=O)c1ccccc1Cl)N1CCC(N2CCN(C3CCN(C(=O)c4cc(C(F)(F)F)cc(C(F)(F)F)c4)C(Cc4ccccc4)C3)CC2)C1 (stereo not drawn) [Compound 295] | 2000 nM | 15.8 nM | 316 nM |
| CC1(C)OCC(CNC(=NC#N)N2CCC(N3CCN(C4CCN(C(=O)c5cc(C(F)(F)F)cc(C(F)(F)F)c5)C(Cc5ccccc5)C4)CC3)C2)O1 (stereo not drawn) [Compound 370] | 6310 nM | 20 nM | 7940 nM |
| O=C(C1CCOC1)N1CCC(N2CCN(C3CCN(C(=O)c4cc(C(F)(F)F)cc(C(F)(F)F)c4)C(Cc4ccc(Cl)c(Cl)c4)C3)CC2)C1 (single isomer, unassigned) [Compound 331] | 2000 nM | 3.16 nM | 251 nM |
| Cc1cc(C(=O)N2CCC(N3CCN([C@H]4CCN(C(=O)c5cc(C(F)(F)F)cc(C(F)(F)F)c5)[C@H](Cc5ccccc5)C4)CC3)C2)n(C(C)(C)C)n1 (stereo partly drawn) [Compound 27] | 631 nM | 15.8 nM | 316 nM |
| Cc1cccc(C(=O)N2CCC(N3CCN([C@H]4CCN(C(=O)c5cc(C(F)(F)F)cc(C(F)(F)F)c5)[C@H](Cc5ccccc5)C4)CC3)C2)c1C (stereo partly drawn) [Compound 19] | 7940 nM | 39.8 nM | 398 nM |
| CC(C)(C)C(=O)N1CC[C@@H](N2CCN([C@H]3CCN(C(=O)c4cc(C(F)(F)F)cc(C(F)(F)F)c4)[C@H](Cc4ccc(Cl)c(Cl)c4)C3)CC2)C1 [Compound 289] | 2000 nM | 7.94 nM | 794 nM |
| O=C(c1sccc1CCOCc1ccccc1)N1CCC(N2CCN([C@H]3CCN(C(=O)c4cc(C(F)(F)F)cc(C(F)(F)F)c4)[C@H](Cc4ccccc4)C3)CC2)C1 (stereo partly drawn) [Compound 361] | 1000 nM | 79.4 nM | 631 nM |
| CC(C)(C)OC(=O)NC(C)(C)C(=O)N1CCC(N2CCN(C3CCN(C(=O)c4cc(C(F)(F)F)cc(C(F)(F)F)c4)C(Cc4ccccc4)C3)CC2)C1 (stereo not drawn) [Compound 205] | 3160 nM | 10 nM | 251 nM |
| Cn1cccc(C(=O)N2CCC(N3CCN(C4CCN(C(=O)c5cc(C(F)(F)F)cc(C(F)(F)F)c5)C(Cc5ccc(F)c(F)c5)C4)CC3)C2)c1=O (single isomer, unassigned) [Compound 368] | 3160 nM | 10 nM | 3160 nM |
| Cc1ccccc1C(=O)N1CCC(N2CCN([C@H]3CCN(C(=O)c4cc(C(F)(F)F)cc(C(F)(F)F)c4)[C@H](Cc4ccccc4)C3)CC2)C1 (stereo partly drawn) [Compound 13] | 3980 nM | 25.1 nM | 200 nM |
| COc1ccc(S(=O)(=O)N2CCC(N3CCN([C@H]4CCN(C(=O)c5cc(C(F)(F)F)cc(C(F)(F)F)c5)[C@H](Cc5ccccc5)C4)CC3)C2)cc1OC (stereo partly drawn) [Compound 378] | 1580 nM | 12.6 nM | 2000 nM |
| O=C(c1sccc1CO)N1CCC(N2CCN([C@H]3CCN(C(=O)c4cc(C(F)(F)F)cc(C(F)(F)F)c4)[C@H](Cc4ccccc4)C3)CC2)C1 (stereo partly drawn) [Compound 360] | 3980 nM | 10 nM | 1000 nM |
| O=C(c1ccoc1)N1CCC(N2CCN([C@H]3CCN(C(=O)c4cc(C(F)(F)F)cc(C(F)(F)F)c4)[C@H](Cc4ccccc4)C3)CC2)C1 (stereo partly drawn) [Compound 34] | 3160 nM | 20 nM | 316 nM |
| O=C(c1ccoc1)N1CCC(N2CCN(C3CCN(C(=O)c4cc(C(F)(F)F)cc(C(F)(F)F)c4)C(Cc4ccccc4)C3)CC2)C1 (single isomer, unassigned) [Compound 32] | 5010 nM | 12.6 nM | 200 nM |
| N#CN=C(N1CCCC1)N1CCC(N2CCN([C@H]3CCN(C(=O)c4cc(C(F)(F)F)cc(C(F)(F)F)c4)[C@H](Cc4ccccc4)C3)CC2)C1 (stereo partly drawn) [Compound 302] | 2510 nM | 7.94 nM | 1000 nM |
| CC(C(=O)N1CCC(N2CCN([C@H]3CCN(C(=O)c4cc(C(F)(F)F)cc(C(F)(F)F)c4)[C@H](Cc4ccccc4)C3)CC2)C1)c1ccccc1 (stereo partly drawn) [Compound 69] | 631 nM | 12.6 nM | 501 nM |
| O=C(c1cc(C(F)(F)F)cc(C(F)(F)F)c1)N1CC[C@H](N2CCN([C@H]3CCN(C(=O)n4ccnc4)C3)CC2)C[C@H]1Cc1ccc(Cl)c(Cl)c1 [Compound 324] | 200 nM | 6.31 nM | 398 nM |
| COc1ccc(C(=O)N2CCC(N3CCN([C@H]4CCN(C(=O)c5cc(C(F)(F)F)cc(C(F)(F)F)c5)[C@H](Cc5ccccc5)C4)CC3)C2)s1 (stereo partly drawn) [Compound 350] | 5010 nM | 12.6 nM | 5010 nM |

More lines, now with the values ahead:

| IC50 (NK2) | IC50 (NK1) | IC50 (NK3) | Structure (SMILES) |
| --- | --- | --- | --- |
| 5010 nM | 50.1 nM | 5010 nM | O=C(C1CCOC1)N1CCC(N2CCN(C3CCN(C(=O)c4cc(C(F)(F)F)cc(C(F)(F)F)c4)C(Cc4ccc(Cl)c(Cl)c4)C3)CC2)C1 (single isomer, unassigned) [Compound 249] |
| 3980 nM | 15.8 nM | 2000 nM | O=C(c1ccsc1)N1CCC(N2CCN(C3CCN(C(=O)c4cc(C(F)(F)F)cc(C(F)(F)F)c4)C(Cc4ccc(F)cc4)C3)CC2)C1 (stereo not drawn) [Compound 278] |
| 2510 nM | 7.94 nM | 794 nM | O=C(C1CCCCC1)N1CC[C@@H](N2CCN([C@H]3CCN(C(=O)c4cc(C(F)(F)F)cc(C(F)(F)F)c4)[C@H](Cc4ccc(Cl)c(Cl)c4)C3)CC2)C1 [Compound 299] |
| 631 nM | 6.31 nM | 6310 nM | COc1ccc(S(=O)(=O)N2CCC(N3CCN([C@H]4CCN(C(=O)c5cc(C(F)(F)F)cc(C(F)(F)F)c5)[C@H](Cc5ccccc5)C4)CC3)C2)s1 (stereo partly drawn) [Compound 328] |
| 5010 nM | 20 nM | 794 nM | O=C(C1CC1)N1CCC(N2CCN(C3CCN(C(=O)c4cc(C(F)(F)F)cc(C(F)(F)F)c4)C(Cc4ccccc4)C3)CC2)C1 (single isomer, unassigned) [Compound 71] |
| 1260 nM | 10 nM | 1580 nM | Cn1cccc1C(=O)N1CCC(N2CCN(C3CCN(C(=O)c4cc(C(F)(F)F)cc(C(F)(F)F)c4)C(Cc4ccc(F)c(F)c4)C3)CC2)C1 (single isomer, unassigned) [Compound 367] |
| 7940 nM | 20 nM | 316 nM | CC(C)(C)OC(=O)N1CCC[C@H]1C(=O)N1CCC(N2CCN([C@H]3CCN(C(=O)c4cc(C(F)(F)F)cc(C(F)(F)F)c4)[C@H](Cc4ccccc4)C3)CC2)C1 (stereo partly drawn) [Compound 115] |
| 3160 nM | 25.1 nM | 251 nM | Cc1onc(-c2c(Cl)cccc2Cl)c1C(=O)N1CCC(N2CCN([C@H]3CCN(C(=O)c4cc(C(F)(F)F)cc(C(F)(F)F)c4)[C@H](Cc4ccccc4)C3)CC2)C1 (stereo partly drawn) [Compound 49] |
| 1000 nM | 10 nM | 501 nM | O=C(C1CC1)N1CCC(N2CCN(C3CCN(C(=O)c4cc(C(F)(F)F)cc(C(F)(F)F)c4)C(Cc4ccc(F)c(F)c4)C3)CC2)C1 (single isomer, unassigned) [Compound 252] |
| 6310 nM | 25.1 nM | 251 nM | Cn1cccc1C(=O)N1CCC(N2CCN([C@H]3CCN(C(=O)c4cc(C(F)(F)F)cc(C(F)(F)F)c4)[C@H](Cc4ccccc4)C3)CC2)C1 (stereo partly drawn) [Compound 24] |
| 1580 nM | 20 nM | 158 nM | O=C(c1c(Cl)cccc1Cl)N1CC[C@@H](N2CCN([C@H]3CCN(C(=O)c4cc(C(F)(F)F)cc(C(F)(F)F)c4)[C@H](Cc4ccc(Cl)c(Cl)c4)C3)CC2)C1 [Compound 265] |
| 63.1 nM | 50.1 nM | 794 nM | O=C(C1CC1)N1CCC(N2CCN([C@H]3CCN(C(=O)c4cc(C(F)(F)F)cc(C(F)(F)F)c4)[C@H](Cc4ccccc4)C3)CC2)C1 (stereo partly drawn) [Compound 72] |
| 2510 nM | 10 nM | 5010 nM | O=C(C(O)c1ccccc1)N1CCC(N2CCN([C@H]3CCN(C(=O)c4cc(C(F)(F)F)cc(C(F)(F)F)c4)[C@H](Cc4ccccc4)C3)CC2)C1 (stereo partly drawn) [Compound 275] |
| 2510 nM | 79.4 nM | 5010 nM | COc1ccc(Cl)cc1S(=O)(=O)N1CCC(N2CCN([C@H]3CCN(C(=O)c4cc(C(F)(F)F)cc(C(F)(F)F)c4)[C@H](Cc4ccccc4)C3)CC2)C1 (stereo partly drawn) [Compound 412] |
| 1260 nM | 6.31 nM | 501 nM | O=C(c1ccoc1)N1CCC(N2CCN(C3CCN(C(=O)c4cc(C(F)(F)F)cc(C(F)(F)F)c4)C(Cc4ccc(F)c(F)c4)C3)CC2)C1 (stereo not drawn) [Compound 226] |
